These results are taken from publication PMC222928 (BMC Biochemistry, 2003).

Series [1] deals with T1, aaTHEP1 (Aquifex aeolicus, UniProt O67322).
T1 sequence (O67322 1-178): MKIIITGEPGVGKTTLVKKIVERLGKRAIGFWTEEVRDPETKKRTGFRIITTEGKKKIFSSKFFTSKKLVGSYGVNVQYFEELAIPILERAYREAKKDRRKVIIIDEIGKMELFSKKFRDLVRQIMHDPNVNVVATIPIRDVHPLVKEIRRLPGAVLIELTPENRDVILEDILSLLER
The experiment in a line: inhibition of [γ-32P]ATP hydrolysis, TLC on PEI-cellulose. It counts as biochemical.

The target of series [2] is T1, aaTHEP1. Put plainly: inhibition of [γ-32P]ATP hydrolysis, TLC autoradiography. It counts as biochemical. To be noted: 5 and 1000 μM ATP, 5 and 1000 μM GDP, 70°C, 5 min.
Substrate in series [3]: Nc1ncnc2c1ncn2[C@@H]1O[C@H](COP(=O)(O)OP(=O)(O)OP(=O)(O)O)[C@@H](O)[C@H]1O
The experiment in a line: purified protein. Particulars: 70°C, 25 mM MgCl2, 5 mM KCl, pH 7.0, labelled compound.

In series [1], `O=c1ccn([C@@H]2O[C@H](COP(=O)(O)OP(=O)(O)OP(=O)(O)O)[C@@H](O)[C@H]2O)c(=O)[nH]1` [UTP] displayed a Ki of 5 ± 2 µM.
The molecule `Cc1cn([C@H]2C[C@H](O)[C@@H](COP(=O)(O)OP(=O)(O)OP(=O)(O)O)O2)c(=O)[nH]c1=O` [dTTP] came in with a Ki in series [1] of 6 ± 2 µM.
As for `Nc1nc2c(ncn2[C@@H]2O[C@H](COP(=O)(O)OP(=O)(O)O)[C@@H](O)[C@H]2O)c(=O)[nH]1` [GDP], in series [2], the “inhibition of [γ-32P]ATP hydrolysis, TLC autoradiography” value was “GDP also inhibits ATP-hydrolysis, whereas GMP, AMP, and UMP show no inhibition”.
Consider `Nc1ccn([C@H]2C[C@H](O)[C@@H](COP(=O)(O)OP(=O)(O)OP(=O)(O)O)O2)c(=O)n1` [dCTP], for which the Ki in series [1] was determined as 9 ± 3 µM.
`Nc1nc2c(ncn2[C@@H]2O[C@H](COP(=O)(O)OP(=O)(O)OP(=O)(O)O)[C@@H](O)[C@H]2O)c(=O)[nH]1` [GTP] showed a Ki in series [1] of 57 ± 20 µM.
The same measure, in the same setting: for `Nc1nc2c(ncn2[C@H]2C[C@H](O)[C@@H](COP(=O)(O)OP(=O)(O)OP(=O)(O)O)O2)c(=O)[nH]1` [dGTP] the value was 18 ± 2 µM.
In series [1], `Nc1ncnc2c1ncn2[C@H]1C[C@H](O)[C@@H](COP(=O)(O)OP(=O)(O)OP(=O)(O)O)O1` [dATP] registered a Ki of 3 ± 0.2 µM.
Take `Nc1ccn([C@@H]2O[C@H](COP(=O)(O)OP(=O)(O)OP(=O)(O)O)[C@@H](O)[C@H]2O)c(=O)n1` [CTP]: the Ki in series [1] is 6 ± 2 µM.

B1: aaTHEP1 (Aquifex aeolicus VF5) (protein)
chain: MKIIITGEPGVGKTTLVKKIVERLGKRAIGFWTEEVRDPETKKRTGFRIITTEGKKKIFSSKFFTSKKLVGSYGVNVQYFEELAIPILERAYREAKKDRRKVIIIDEIGKMELFSKKFRDLVRQIMHDPNVNVVATIPIRDVHPLVKEIRRLPGAVLIELTPENRDVILEDILSLLER
For the molecule B1, in series [3], the Km was 5.5 µM and the kcat amounted to 0.005 s⁻¹.

Usually Ki stands for the dissociation constant of the complex between target and ligand, obtained from inhibition or displacement. The term Km denotes the concentration of substrate that gives half-maximal velocity. Usually kcat stands for the number of substrate molecules converted per active site and unit of time at saturation.
